Source: PMC4301037, “Identification and Structure–Function Analysis of Subfamily Selective G Protein-Coupled Receptor Kinase Inhibitors” (ACS Chemical Biology, 2014)

Each molecule was assayed against T1, bovine GRK5 (Bos taurus, UniProt P43249) (assay: Primary DSF inhibitor screen, GRK5). Conditions: 10 μM compound, 2 μM kinase, relative to DMSO control.
T1 construct: when using full-length kinases as the receptor[37] instead of isolated kinase domains; made in house
T1 sequence (P43249 whole entry, the tested form may be a part): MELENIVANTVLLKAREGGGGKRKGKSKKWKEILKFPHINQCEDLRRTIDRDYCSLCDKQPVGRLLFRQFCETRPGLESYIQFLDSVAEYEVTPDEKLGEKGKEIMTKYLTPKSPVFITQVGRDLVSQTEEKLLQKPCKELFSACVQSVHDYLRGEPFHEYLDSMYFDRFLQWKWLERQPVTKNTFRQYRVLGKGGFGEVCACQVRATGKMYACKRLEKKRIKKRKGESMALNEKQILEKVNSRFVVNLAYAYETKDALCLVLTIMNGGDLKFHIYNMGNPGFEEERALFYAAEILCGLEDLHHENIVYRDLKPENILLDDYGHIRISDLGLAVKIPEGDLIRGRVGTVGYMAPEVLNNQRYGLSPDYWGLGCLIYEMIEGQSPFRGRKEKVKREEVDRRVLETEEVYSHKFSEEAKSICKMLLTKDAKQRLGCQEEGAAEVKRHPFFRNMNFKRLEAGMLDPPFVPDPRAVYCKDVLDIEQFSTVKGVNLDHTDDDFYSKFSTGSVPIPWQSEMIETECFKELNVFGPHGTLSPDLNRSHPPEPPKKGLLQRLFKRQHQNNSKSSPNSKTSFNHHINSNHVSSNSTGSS
Type: binding
CS(=O)(=O)c1cccc(CNc2nc(Nc3ccc4c(c3)CCC(=O)N4)ncc2C(F)(F)F)c1 [PF 573228] was tested, and the “ΔTm, primary screen, GRK5” value was 2.67 °C. For NC(=O)Nc1sc(-c2ccccc2)cc1C(N)=O [IKK-2 Inhibitor VI], the “ΔTm, primary screen, GRK5” value was 2.57 °C. With Cdk1/2 Inhibitor III the “ΔTm, primary screen, GRK5” value was 3.6 °C. For Cn1cc(/C=C2\C(=O)Nc3ccc(S(N)(=O)=O)cc32)c2ccccc21 [Syk Inhibitor], the “ΔTm, primary screen, GRK5” value was 3.6 °C. O=C1Nc2ccccc2/C1=C\c1cnc[nH]1 [(Z,E)-3-(Imidazol-4-ylmethylene)indolin-2-one] was tested, and the “ΔTm, primary screen, GRK5” value was 4.8 °C. O [Water] was tested, and the “ΔTm, primary screen, GRK5” value was 2.01 °C. Wee1/Chk1 inhibitor was tested, and the “ΔTm, primary screen, GRK5” value was 4.89 °C. In the case of O=C1NC(=O)C(c2cn(CCCn3ccnc3)c3ccccc23)=C1Nc1ccccc1 [PKC beta inhibitor], the “ΔTm, primary screen, GRK5” value is reported as 3.13 °C. Nc1ncnc2c1c(I)cn2[C@@H]1O[C@H](CO)[C@@H](O)[C@H]1O [5-Iodotubercidin, 4-Amino-5-iodo-7-(b-D-ribofuranosyl)pyrrolo[2,3-d]pyrimidine] was tested, and the “ΔTm, primary screen, GRK5” value was 2.22 °C. With O=C1NC(=O)/C(=C/c2ccc(-c3nc4ccccc4s3)o2)S1 [BAS 09687195] the “ΔTm, primary screen, GRK5” value was 2.87 °C. For Nc1cc2ncnc(Nc3cccc(Br)c3)c2cc1N [4-[(3-Bromophenyl)amino]-6,7-diaminoquinazoline], the “ΔTm, primary screen, GRK5” value was 6.16 °C. In the case of O=C1Nc2ccccc2C1=Cc1c(Cl)[nH]c2ccccc12 [3-(2-Chloro-3-indolylmethylene)-1,3-dihydroindol-2-one], the “ΔTm, primary screen, GRK5” value is reported as 2.98 °C. Cl.Cn1cc(C2=C(c3c4n(c5ccccc35)CCC(CN)C4)C(=O)NC2=O)c2ccccc21 (stereo not drawn) [BIM 10, Bisindolylmaleimide X, HCl] was tested, and the “ΔTm, primary screen, GRK5” value was 6.19 °C. In the case of IGF-1R Inhibitor II, the “ΔTm, primary screen, GRK5” value is reported as 2.42 °C. With COC(=O)[C@@]1(O)C[C@H]2O[C@]1(C)n1c3ccccc3c3c4c(c5c6ccccc6n2c5c31)C(=O)NC4 [K252a] the “ΔTm, primary screen, GRK5” value was 9.89 °C. For NC1=NC(=O)C(=C2CCNC(=O)c3[nH]c(Br)cc32)N1 [10Z-Hymenialdisine, 4-(2-Amino-4-oxo-2-imidazolidin-5-ylidene)-2-bromo-4,5,6,7-tetrahydropyrrolo[2,3-c]azepin-8-one], the “ΔTm, primary screen, GRK5” value was 4.5 °C. CC(C)n1cnc2c(Nc3cccc(Cl)c3)nc(NCCO)nc21 [Compound 52, 2-(2-Hydroxyethylamino)-6-(3-chloroanilino)-9-isopropylpurine] was tested, and the “ΔTm, primary screen, GRK5” value was 5.53 °C. Cl.Cl.NCCNc1ncc(C(N)=O)c(Nc2cccc(C(F)(F)F)c2)n1 [Syk Inhibitor II] was tested, and the “ΔTm, primary screen, GRK5” value was 2.43 °C.

Same assay, conditions: 10 μM compound, 2 μM kinase, relative to DMSO control; read-out: ΔTm, primary screen, GRK5
Cn1cc(C2=C(c3ccc(Cl)cc3Cl)C(=O)NC2=O)c2ccccc21 [SB216763] was tested, and the ΔTm at 10 µM was 2.78 °C. O=C(Nc1n[nH]c2nc(-c3ccco3)c(Br)cc12)C1CC1 [SB-739452] was tested, and the ΔTm at 10 µM was 2.03 °C. Work on CCCN1CCC=C(c2ccc(Nc3nc(Nc4ccccc4C(N)=O)c4cc[nH]c4n3)c(C)c2)C1 [GSK994854A] yielded a ΔTm at 10 µM of 4.92 °C. With O=c1c(-c2ccc(O)cc2)coc2cc(O)cc(O)c12 [Genistein, 4',5,7-Trihydroxyisoflavone] the ΔTm at 10 µM was 2.46 °C. Work on O=S(=O)(CCNCc1ccc(-c2ccc3ncnc(Nc4ccc(OCc5cccc(F)c5)c(Cl)c4)c3c2)o1)c1ccccc1 [GW633459A] yielded a ΔTm at 10 µM of 3.27 °C. Molecule CC(=O)Nc1cccc(C#Cc2cncnc2Nc2ccc(OCc3cccc(F)c3)c(Cl)c2)c1 [GW703087X] has a ΔTm at 10 µM of 3.36 °C. Molecule COC(=O)Nc1nc2ccc(Sc3ccc(NC(=O)Nc4cc(C(F)(F)F)ccc4F)cc3)cc2[nH]1 [GW607049C] has a ΔTm at 10 µM of 3.59 °C. Cc1cc(O)cc(C)c1/C=C/c1cncc(C(=O)OC(C)(C)C)c1 [GW439255X] gave a ΔTm at 10 µM of 2.66 °C. NS(=O)(=O)c1ccc(N/N=C2\C(=O)Nc3ccc(C(=O)NCCc4c[nH]cn4)cc32)cc1 [GW300660X] showed a ΔTm at 10 µM of 3.03 °C. Work on CC(C)=Cc1cccc2c1C(=NNc1ccc(S(N)(=O)=O)cc1)C(=O)N2 [GW396574X] yielded a ΔTm at 10 µM of 2.08 °C. In the case of Fc1cccc(COc2ccc(Nc3ncnc4sc(-c5ccco5)cc34)cc2Cl)c1 [GSK969786A], the ΔTm at 10 µM is reported as 2.11 °C. With NC(=O)c1cccc(Nc2nccc(Nc3cccc(F)c3)n2)c1 [GW759710A] the ΔTm at 10 µM was 2.68 °C. O=C(O)c1ccc2c3c1cccc3c(=O)n1c3ccccc3nc21 [STO-609] was tested, and the ΔTm at 10 µM was 3.24 °C. COC(=O)Nc1nc2ccc(Oc3ccc(NC(=O)Nc4cccc(C(=O)O)c4)cc3)cc2[nH]1 [GW701427A] gave a ΔTm at 10 µM of 3.25 °C. With NC(=O)c1sc(-n2cnc3ccc(C(F)(F)F)cc32)cc1OCc1ccccc1Br [GW853606X] the ΔTm at 10 µM was 4.43 °C. CN1CCN(CCCNc2nc3ccc(Oc4ccc(NC(=O)Nc5cc(C(F)(F)F)ccc5F)cc4)cc3[nH]2)CC1 [GW700494A] was tested, and the ΔTm at 10 µM was 3.97 °C. CS(=O)(=O)CCN(CC#N)Cc1ccc(-c2ccc3ncnc(Nc4ccc(OCc5cccc(F)c5)c(Cl)c4)c3c2)o1 [GW616030X] gave a ΔTm at 10 µM of 3.29 °C. NS(=O)(=O)c1ccc(NN=C2C(=O)Nc3ccc(C(=O)NCc4ccncc4)cc32)cc1 [GW300657X] was tested, and the ΔTm at 10 µM was 3.89 °C. Molecule CC1=C(C(=O)Nc2ccc3[nH]nc(C)c3c2)C(c2ccc(C(F)(F)F)cc2)CC(=O)N1 (stereo not drawn) [GSK466314A] has a ΔTm at 10 µM of 3.54 °C. In the case of Nc1nonc1-c1nc2cnccc2n1C1CC1 [SB-736302], the ΔTm at 10 µM is reported as 2.86 °C. For Nc1nccc(C#Cc2cncnc2Nc2ccc(OCc3cccc(F)c3)c(Cl)c2)n1 [GW799251X], the ΔTm at 10 µM was 4.33 °C. O=C1Nc2ccccc2/C1=C/Nc1ccc2[nH]c(=O)[nH]c2c1 [GW284408X] showed a ΔTm at 10 µM of 2.4 °C. In the case of CCCN1CCCC(c2ccc(Nc3nc(Nc4cc(F)ccc4C(N)=O)c4cc[nH]c4n3)c(OC)c2)C1 (stereo not drawn) [GSK1173862A], the ΔTm at 10 µM is reported as 4.75 °C. O=c1c(O)c(-c2ccc(O)c(O)c2)oc2cc(O)cc(O)c12 [Quercetin, 3,3',4',5,7-Pentahydroxyflavone] showed a ΔTm at 10 µM of 10.6 °C. COC(=O)Nc1nc2ccc(Oc3ccc(NC(=O)Nc4cccc(Br)c4)cc3)cc2[nH]1 [GW694234A] showed a ΔTm at 10 µM of 4.08 °C. Molecule Cc1ccc(NC(=O)CC2CC2)cc1-c1ccc(C(=O)NCC2CC2)cc1 [GW796920X] has a ΔTm at 10 µM of 3.82 °C. Molecule O=C(Nc1ccc(Oc2ccc3nc(NC(=O)c4ccccc4)[nH]c3c2)cc1)Nc1cc(C(F)(F)F)ccc1F [GW709042A] has a ΔTm at 10 µM of 3.88 °C. In the case of O=C(Nc1ccc(Oc2ccc3nc(NC(=O)c4ccco4)[nH]c3c2)cc1)Nc1cc(C(F)(F)F)ccc1F [GW683134A], the ΔTm at 10 µM is reported as 2.32 °C. CS(=O)(=O)CCNCc1ccc(-c2ccc3ncnc(Nc4ccc(OCc5ccccc5)c(Br)c4)c3c2)o1 [GW580496A] showed a ΔTm at 10 µM of 4.33 °C. CCc1nn2ncccc2c1-c1ccnc(NC2CC2)n1 [GW683768X] was tested, and the ΔTm at 10 µM was 2.22 °C. With CS(=O)(=O)CCNCc1ccc(-c2ccc3ncnc(Nc4ccc(OCc5ccccc5)c(Cl)c4)c3c2)o1 [GW574783B] the ΔTm at 10 µM was 4.25 °C. With NS(=O)(=O)c1ccc(NN=C2C(=O)Nc3ccc(C(=O)NCCCn4ccnc4)cc32)cc1 [GW290597X] the ΔTm at 10 µM was 3.72 °C. In the case of COC(=O)Nc1nc2ccc(S(=O)(=O)c3ccc(NC(=O)Nc4cc(C(F)(F)F)ccc4F)cc3)cc2[nH]1 [GW680908A], the ΔTm at 10 µM is reported as 4.07 °C. O=c1cc(-c2ccc(O)cc2)oc2cc(O)cc(O)c12 [Apigenin, 4',5,7-Trihydroxyflavone] gave a ΔTm at 10 µM of 2.9 °C.

Same assay, conditions: read-out: ΔTm, primary screen, GRK5, 10 μM compound, 2 μM kinase, relative to DMSO control
Clc1ccc(CNc2nccc(-c3cnn4ncccc34)n2)cc1 [GW781673X] gave a ΔTm at 10 µM of 2.27 °C. With c1cc(-c2cnn3nc(N4CCOCC4)ccc23)nc(NC2CC2)n1 [GW708336X] the ΔTm at 10 µM was 2.8 °C.
